Laboratory results reported in patent publication US12077503B2, “Substituted cyclic amides and their use as herbicides” (FMC CORPORATION, priority 2015, dated 2024).

Experiments:
Format in all cases: in vivo
[1] = system: barnyardgrass (Echinochloa crus-galli); experiment: Test G Pre-Emergence Protocol; details: Echinochloa crus-galli, pre-emergence, 312 h, evaluated after 13 days
How it was run: (§1)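 Visual injury (0–100) at day 13 after a single pre-emergence spray. Rates: 15.625, 62.5, 250 g/ha in acetone–water 50:50 with 0.5% Tween 20. Growth conditions: 24/16° C, 14 h light, 65% humidity.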

[2] = system: corn (Zea mays); experiment: Test G Pre-Emergence Protocol; details: Zea mays, pre-emergence, 312 h, evaluated after 13 days
How it was run: as §1

[3] = system: giant foxtail (Setaria faberi); experiment: Test G Pre-Emergence Protocol; details: Setaria faberi, pre-emergence, 312 h, evaluated after 13 days
How it was run: as §1

[4] = system: ivy-leaved morning glory (Ipomoea hederacea); experiment: Test G Pre-Emergence Protocol; details: Ipomoea, pre-emergence, 312 h, evaluated after 13 days
How it was run: as §1

[5] = system: redroot pigweed (Amaranthus retroflexus); experiment: Test G Pre-Emergence Protocol; details: Amaranthus retroflexus, pre-emergence, 312 h, evaluated after 13 days
How it was run: as §1

[6] = system: velvetleaf (Abutilon theophrasti); experiment: Test G Pre-Emergence Protocol; details: Abutilon theophrasti, pre-emergence, 312 h, evaluated after 13 days
How it was run: as §1

[7] = system: barnyardgrass (Echinochloa crus-galli); experiment: Test G Post-Emergence Protocol; details: Echinochloa crus-galli, post-emergence, 312 h, read-out: Barnyardgrass damage rating
How it was run: (§2)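 A glasshouse post-emergence test: 8-day-old plants sprayed at 15.625, 62.5 or 250 g/ha, then grown at 24/16 °C day/night with 14 h light and 65% humidity. Damage rated 13 days later, 0–100.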

[8] = system: corn (Zea mays); experiment: Test G Post-Emergence Protocol; details: Zea mays, post-emergence, 312 h, read-out: Corn damage rating
How it was run: as §2

[9] = system: giant foxtail (Setaria faberi); experiment: Test G Post-Emergence Protocol; details: Setaria faberi, post-emergence, 312 h, read-out: Foxtail, Giant damage rating
How it was run: as §2

[10] = system: ivy-leaved morning glory (Ipomoea hederacea); experiment: Test G Post-Emergence Protocol; details: Ipomoea, post-emergence, 312 h, read-out: Morningglory, Ivy-leaved damage rating
How it was run: as §2

[11] = system: redroot pigweed (Amaranthus retroflexus); experiment: Test G Post-Emergence Protocol; details: Amaranthus retroflexus, post-emergence, 312 h, read-out: Pigweed, Redroot damage rating
How it was run: as §2

[12] = system: velvetleaf (Abutilon theophrasti); experiment: Test G Post-Emergence Protocol; details: Abutilon theophrasti, post-emergence, 312 h, read-out: Velvetleaf damage rating
How it was run: as §2

[13] = 15.625 g ai/ha, evaluated after 13 days (100=total damage to plant; 0=no damage to plant)
[14] = 62.5 g ai/ha, evaluated after 13 days, 100=total damage to plant, 0=no damage to plant
[15] = 250 g ai/ha, evaluated after 13 days, 100=total damage to plant, 0=no damage to plant

## CC(C)Oc1cc(OC(F)(F)F)cc(C2CN(C)C(=O)C2C(=O)Nc2cccc(F)c2F)c1 (stereo not drawn) [Compound 1726]
[1]; 15.625 g ai/ha, read-out: Barnyardgrass damage rating (100=total damage to plant; 0=no damage to plant)
  pest or weed control at 15.625 g/ha: 0%
[1]; 62.5 g ai/ha, 100=total damage to plant, 0=no damage to plant, read-out: Barnyardgrass damage rating
  pest or weed control at 62.5 g/ha: 50%
[1]; 250 g ai/ha, read-out: Barnyardgrass damage rating (100=total damage to plant; 0=no damage to plant)
  pest or weed control at 250 g/ha: 70%
[2]; 15.625 g ai/ha, read-out: Corn damage rating (100=total damage to plant; 0=no damage to plant)
  plant injury at 15.625 g/ha: 0%
[2]; 62.5 g ai/ha, 100=total damage to plant, 0=no damage to plant, read-out: Corn damage rating
  plant injury at 62.5 g/ha: 0%
[2]; 250 g ai/ha, read-out: Corn damage rating (100=total damage to plant; 0=no damage to plant)
  plant injury at 250 g/ha: 30%
[3]; 15.625 g ai/ha, read-out: Foxtail, Giant damage rating (100=total damage to plant; 0=no damage to plant)
  pest or weed control at 15.625 g/ha: 10%
[3]; 62.5 g ai/ha, 100=total damage to plant, 0=no damage to plant, read-out: Foxtail, Giant damage rating
  pest or weed control at 62.5 g/ha: 50%
[3]; 250 g ai/ha, read-out: Foxtail, Giant damage rating (100=total damage to plant; 0=no damage to plant)
  pest or weed control at 250 g/ha: 80%
[4]; 15.625 g ai/ha, read-out: Morningglory, Ivy-leaved damage rating (100=total damage to plant; 0=no damage to plant)
  pest or weed control at 15.625 g/ha: 0%
[4]; 62.5 g ai/ha, 100=total damage to plant, 0=no damage to plant, read-out: Morningglory, Ivy-leaved damage rating
  pest or weed control at 62.5 g/ha: 0%
[4]; 250 g ai/ha, read-out: Morningglory, Ivy-leaved damage rating (100=total damage to plant; 0=no damage to plant)
  pest or weed control at 250 g/ha: 0%
[5]; 15.625 g ai/ha, read-out: Pigweed, Redroot damage rating (100=total damage to plant; 0=no damage to plant)
  pest or weed control at 15.625 g/ha: 0%
[5]; 62.5 g ai/ha, 100=total damage to plant, 0=no damage to plant, read-out: Pigweed, Redroot damage rating
  pest or weed control at 62.5 g/ha: 0%
[5]; 250 g ai/ha, read-out: Pigweed, Redroot damage rating (100=total damage to plant; 0=no damage to plant)
  pest or weed control at 250 g/ha: 10%
[6]; 15.625 g ai/ha, read-out: Velvetleaf damage rating (100=total damage to plant; 0=no damage to plant)
  pest or weed control at 15.625 g/ha: 0%
[6]; 62.5 g ai/ha, 100=total damage to plant, 0=no damage to plant, read-out: Velvetleaf damage rating
  pest or weed control at 62.5 g/ha: 0%
[6]; 250 g ai/ha, read-out: Velvetleaf damage rating (100=total damage to plant; 0=no damage to plant)
  pest or weed control at 250 g/ha: 0%
[7]; [13]
  pest or weed control at 15.625 g/ha: 0%
[7]; [14]
  pest or weed control at 62.5 g/ha: 30%
[7]; [15]
  pest or weed control at 250 g/ha: 70%
[8]; [13]
  plant injury at 15.625 g/ha: 10%
[8]; [14]
  plant injury at 62.5 g/ha: 30%
[8]; [15]
  plant injury at 250 g/ha: 70%
[9]; [13]
  pest or weed control at 15.625 g/ha: 0%
[9]; [14]
  pest or weed control at 62.5 g/ha: 70%
[9]; [15]
  pest or weed control at 250 g/ha: 70%
[10]; [13]
  pest or weed control at 15.625 g/ha: 10%
[10]; [14]
  pest or weed control at 62.5 g/ha: 10%
[10]; [15]
  pest or weed control at 250 g/ha: 70%
[11]; [13]
  pest or weed control at 15.625 g/ha: 20%
[11]; [14]
  pest or weed control at 62.5 g/ha: 0%
[11]; [15]
  pest or weed control at 250 g/ha: 40%
[12]; [13]
  pest or weed control at 15.625 g/ha: 0%
[12]; [14]
  pest or weed control at 62.5 g/ha: 0%
[12]; [15]
  pest or weed control at 250 g/ha: 20%
